Data taken from ChEMBL document CHEMBL1154936, “Synthesis, SAR and intramolecular hydrogen bonding pattern of 1,3,5-trisubstituted 4,5-dihydropyrazoles as potent cannabinoid CB(1) receptor antagonists” (Bioorg Med Chem Lett, 2010).

Key:
[1] = target: T1, Cannabinoid receptor 1 (Homo sapiens, UniProt P21554); test: Displacement of [3H]CP-55940 from human cannabinoid CB1 receptor expressed in CHO cells; type: cell-based
[2] = target: T1, Cannabinoid receptor 1; test: Antagonist activity at human cannabinoid CB1 receptor expressed in CHO cells assessed as inhibition of CP-55940-induced [3H]arachidonic acid release; type: functional, cell-based; settings: read-out: pA2 (converted)
[3] = target: Cannabinoid receptor 2 (Homo sapiens, UniProt P34972); test: Displacement of [3H]CP-55940 from human cannabinoid CB2 receptor expressed in CHO cells; type: cell-based
Cannabinoid receptor 2, sequence (P34972 whole entry): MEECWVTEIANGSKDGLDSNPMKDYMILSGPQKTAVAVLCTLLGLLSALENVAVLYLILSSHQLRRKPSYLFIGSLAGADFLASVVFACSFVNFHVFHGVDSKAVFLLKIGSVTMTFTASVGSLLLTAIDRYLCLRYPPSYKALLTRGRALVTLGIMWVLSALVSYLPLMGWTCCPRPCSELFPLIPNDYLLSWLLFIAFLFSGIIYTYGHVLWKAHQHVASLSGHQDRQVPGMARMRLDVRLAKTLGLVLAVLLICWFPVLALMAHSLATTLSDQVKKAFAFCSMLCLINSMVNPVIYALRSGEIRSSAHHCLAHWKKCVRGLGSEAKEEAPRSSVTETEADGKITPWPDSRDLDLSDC

[4] = system: Rattus norvegicus; test: Inhibition of CP-55940-induced hypotension in po dosed rat; type: functional; settings: read-out: ID50 (the source's name)

T1 sequence (P21554 whole entry): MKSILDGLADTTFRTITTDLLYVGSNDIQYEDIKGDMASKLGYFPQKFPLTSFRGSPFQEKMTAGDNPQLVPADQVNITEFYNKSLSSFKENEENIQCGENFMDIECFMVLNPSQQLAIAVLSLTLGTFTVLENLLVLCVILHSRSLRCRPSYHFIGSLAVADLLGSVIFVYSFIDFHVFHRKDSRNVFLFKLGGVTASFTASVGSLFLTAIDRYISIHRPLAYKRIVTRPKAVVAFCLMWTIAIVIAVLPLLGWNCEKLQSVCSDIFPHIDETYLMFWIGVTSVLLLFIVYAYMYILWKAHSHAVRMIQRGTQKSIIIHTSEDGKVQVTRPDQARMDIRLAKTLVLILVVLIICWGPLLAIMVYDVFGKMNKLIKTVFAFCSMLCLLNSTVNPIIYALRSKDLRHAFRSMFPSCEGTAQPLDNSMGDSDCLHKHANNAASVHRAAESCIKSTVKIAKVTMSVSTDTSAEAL

Q: Which Ki [1] does the source give for `CN/C(=N\S(=O)(=O)c1ccc(F)cc1)C1=NN(c2ccc(Cl)cc2)C(c2ccccc2)C1` (stereo not given) here?
A: Its Ki is 0.0217 µM.

Q: And the Kb [2]?
A: The Kb was 0.01 µM.

Q: And the Ki [3]?
A: The Ki was greater than 1 µM.

Q: And the ED50 [4]?
A: Its ED50 is 30 mg/kg.

Q: What does the source list for `CNC(=NS(=O)(=O)N1CCC(C(F)(F)F)CC1)C1=NN(c2ccc(Cl)cc2)[C@@H](c2ccccc2)C1`?
A: Ki [1]: 0.002 µM; Ki [3]: 0.584 µM

Q: Which results are given for `CN/C(=N\S(=O)(=O)N1CCC(F)(F)CC1)C1=NN(c2ccc(Cl)cc2)[C@@H](c2ccccc2)C1`?
A: Ki [1]: 0.0092 µM; Kb [2]: 0.00158 µM; Ki [3]: > 1 µM; ED50 [4]: 5 mg/kg

Q: For `CNC(=NS(=O)(=O)N1CCC(C(F)(F)F)CC1)N1C[C@H](c2ccccc2)C(c2ccc(Cl)cc2)=N1`, which Ki [1] is on record?
A: The Ki was 0.0047 µM.

Q: What about the Kb [2] of the same molecule?
A: The Kb was 0.000251 µM.

Q: And the Ki [3]?
A: Its Ki is 0.305 µM.

Q: And the ED50 [4]?
A: The ED50 was 2 mg/kg.

Q: Which results are given for `CNC(=NS(=O)(=O)N1CCC(C(F)(F)F)CC1)N1C[C@@H](c2ccccc2)C(c2ccc(Cl)cc2)=N1`?
A: Ki [1]: 0.14 µM; Kb [2]: 0.0501 µM; Ki [3]: > 1 µM; ED50 [4]: > 30 mg/kg

Q: With `CNC(=NS(=O)(=O)N1CCC(C(F)(F)F)CC1)C1=NN(c2ccc(Cl)cc2)[C@H](c2ccccc2)C1` as the molecule, how does the Ki [1] read?
A: The Ki was 0.058 µM.

Q: And the Kb [2]?
A: The Kb was 0.00631 µM.

Q: And the Ki [3]?
A: The Ki was greater than 1 µM.

Q: With `CN/C(=N\S(=O)(=O)N1CCC(C(F)(F)F)CC1)C1=NN(c2ccc(Cl)cc2)C(c2ccccc2)C1` (stereo not given) as the molecule, how does the Ki [1] read?
A: Its Ki is 0.0076 µM.

Q: And the Kb [2]?
A: The Kb was 0.000398 µM.

Q: And the Ki [3]?
A: The Ki was 0.606 µM.

Q: How did the ED50 [4] turn out when `CN/C(=N\S(=O)(=O)c1ccc(Cl)cc1)N1CC(c2ccccc2)C(c2ccc(Cl)cc2)=N1` (stereo not drawn) [RAC-IBIPINABANT] was run?
A: The ED50 was 15 mg/kg.

Q: With `CN/C(=N\S(=O)(=O)c1cccc(Cl)c1)C1=NN(c2ccc(Cl)cc2Cl)C(c2ccccc2)C1` (stereo not given) as the molecule, how does the Ki [1] read?
A: The Ki was 0.053 µM.

Q: What about the Kb [2] of the same molecule?
A: Its Kb is 0.00501 µM.

Q: What about the Ki [3] of the same molecule?
A: The Ki was 0.33 µM.

Q: What about the ED50 [4] of the same molecule?
A: Its ED50 is greater than 30 mg/kg.

Q: With `CNC(=NS(=O)(=O)N1CCC(F)CC1)N1CC(c2ccccc2)C(c2ccc(Cl)cc2)=N1` (stereo not given) as the molecule, how does the Ki [1] read?
A: The Ki was 0.0075 µM.

Q: And the Kb [2]?
A: The Kb was 0.001 µM.

Q: What about the Ki [3] of the same molecule?
A: Its Ki is greater than 1 µM.

Q: What about the ED50 [4] of the same molecule?
A: The ED50 was greater than 30 mg/kg.

Q: With `CN/C(=N\S(=O)(=O)N1CCCCC1)N1C[C@H](c2ccccc2)C(c2ccc(Cl)cc2)=N1` as the molecule, how does the ED50 [4] read?
A: Its ED50 is 8 mg/kg.

Q: With `CNC(=NS(=O)(=O)N1CCCCC1)C1=NN(c2ccc(Cl)cc2)C(c2ccccc2)C1` (stereo not given) as the molecule, how does the Ki [1] read?
A: The Ki was 0.141 µM.

Q: What about the Kb [2] of the same molecule?
A: The Kb was 0.0126 µM.

Q: What about the Ki [3] of the same molecule?
A: Its Ki is 1.09 µM.

Q: And the ED50 [4]?
A: Its ED50 is greater than 30 mg/kg.

Q: With `CN/C(=N\S(=O)(=O)N1CCC(F)CC1)C1=NN(c2ccc(Cl)cc2)C(c2ccccc2)C1` (stereo not given) as the molecule, how does the Ki [1] read?
A: The Ki was 0.055 µM.

Q: What about the Kb [2] of the same molecule?
A: The Kb was 0.00398 µM.

Q: What about the Ki [3] of the same molecule?
A: The Ki was greater than 1 µM.

Q: What about the ED50 [4] of the same molecule?
A: The ED50 was greater than 30 mg/kg.

Q: Which results are given for `CN/C(=N\S(=O)(=O)N1CCC(C(F)(F)F)CC1)N1CC(c2ccccc2)C(c2ccc(Cl)cc2)=N1` (stereo not given)?
A: Ki [1]: 0.0145 µM; Kb [2]: 0.000398 µM; Ki [3]: > 1 µM

Q: `CN/C(=N\S(=O)(=O)c1ccc(Cl)cc1)N1C[C@H](c2ccccc2)C(c2ccc(Cl)cc2)=N1` [IBIPINABANT] was tested. Which ED50 [4] did it give?
A: Its ED50 is 5.5 mg/kg.

Q: With `CN=C(NS(=O)(=O)N1CCC(F)(F)CC1)C1=NN(c2ccc(Cl)cc2)C(c2ccccc2)C1` (stereo not given) as the molecule, how does the Ki [1] read?
A: Its Ki is 0.0388 µM.

Q: And the Kb [2]?
A: The Kb was 0.000794 µM.

Q: What about the Ki [3] of the same molecule?
A: Its Ki is greater than 1 µM.

Q: And the ED50 [4]?
A: Its ED50 is 9 mg/kg.

Q: Which results are given for `CNC(=NS(=O)(=O)N1CCC(F)(F)CC1)N1C[C@@H](c2ccccc2)C(c2ccc(Cl)cc2)=N1`?
A: Ki [1]: 0.463 µM; Kb [2]: 0.398 µM; Ki [3]: > 1 µM; ED50 [4]: > 30 mg/kg

Q: Which results are given for `CN/C(=N\S(=O)(=O)c1ccc(Cl)cc1)C1=NN(c2ccc(Cl)cc2Cl)C(c2ccccc2)C1` (stereo not given)?
A: Ki [1]: 0.037 µM; Kb [2]: 0.001 µM; Ki [3]: 0.248 µM; ED50 [4]: > 30 mg/kg

Q: With `CNC(=NS(=O)(=O)N1CCC(F)(F)CC1)N1C[C@H](c2ccccc2)C(c2ccc(Cl)cc2)=N1` as the molecule, how does the Ki [1] read?
A: Its Ki is 0.042 µM.

Q: What about the Kb [2] of the same molecule?
A: Its Kb is 0.001 µM.

Q: And the Ki [3]?
A: Its Ki is greater than 1 µM.

Q: And the ED50 [4]?
A: Its ED50 is 6 mg/kg.

Q: `CN/C(=N\S(=O)(=O)c1ccc(Cl)cc1)C1=NN(c2ccc(Cl)cc2)C(c2ccccc2)C1` (stereo not given) was tested. Which Ki [1] did it give?
A: The Ki was 0.084 µM.

Q: What about the Kb [2] of the same molecule?
A: Its Kb is 0.00398 µM.

Q: What about the Ki [3] of the same molecule?
A: Its Ki is greater than 1 µM.

Q: And the ED50 [4]?
A: Its ED50 is greater than 30 mg/kg.

Q: `CN/C(=N\S(=O)(=O)N1CCC(F)(F)CC1)C1=NN(c2ccc(Cl)cc2)[C@H](c2ccccc2)C1` was tested. Which Ki [1] did it give?
A: The Ki was 0.28 µM.

Q: What about the Kb [2] of the same molecule?
A: Its Kb is greater than 0.2 µM.

Q: And the Ki [3]?
A: Its Ki is greater than 1 µM.

Q: And the ED50 [4]?
A: The ED50 was greater than 30 mg/kg.

Q: Which Ki [1] does the source give for `CN/C(=N\S(=O)(=O)c1ccc(C(F)(F)F)cc1)C1=NN(c2ccc(Cl)cc2Cl)C(c2ccccc2)C1` (stereo not given) here?
A: The Ki was 0.0113 µM.

Q: And the Kb [2]?
A: The Kb was 0.00251 µM.

Q: And the Ki [3]?
A: The Ki was 0.179 µM.

Q: And the ED50 [4]?
A: Its ED50 is greater than 30 mg/kg.

Q: How did the ED50 [4] turn out when `CN/C(=N\S(=O)(=O)N1CCC(F)(F)CC1)N1CC(c2ccccc2)C(c2ccc(Cl)cc2)=N1` (stereo not given) was run?
A: Its ED50 is 23 mg/kg.
